Source: US9090549B2, “1,4-naphthoquinones derivatives and therapeutic use thereof” (CENTRE NATIONAL DE LA RECHERCHE SCIENTIFIQUE (C.N.R.S.), priority 2008, dated 2015)
Like-named read-outs stand apart in the source and are kept apart here.

Columns and labels:
Pf-GHA = Pf-GHA growth inhibition, colorimetric NBT-based lactate dehydrogenase assay; assay type: cell-based; details: Plasmodium falciparum, read-out: IC50 against Pf-GHA
Protocol: The IC50 values against Pf-GHA and MRC-5 were determined by using the less sensitive colorimetric NBT-based lactate dehydrogenase assay (Makler et al, Am. J. Trop. Med. Hyg. 1993, 48 (6), 739-741) based on redox-reactions.
In Vitro Antiparasitic Bioassays. The strain is maintained in RPMI-1640 medium supplemented with 0.37 mM hypoxanthine, 25 mM HEPES, 25 mM NaHCO3, and 10% O^+ human serum together with 2-4% washed human O^+ erythrocytes. All cultures and assays are conducted under an atmosphere of 4% CO2, 3% O2 and 93% N2. Assays are performed in 96-well microtiter plates, each well containing 10 μL of the watery compound dilutions together with 190 μL of the malaria parasite inoculum (1% parasitaemia, 2% HCT). After 72 h incubation, plates are frozen and stored at −20° C. After thawing, 20 μL of each well is transferred into another plate together with 100 μL Malstat reagent and 20 μL of 1/1 mixture of PES (phenazine ethosulfate, 0.1 mg/mL) and NBT (Nitro Blue Tetrazolium Grade III, 2 mg/mL). Change in colour is measured spectrophotometrically at 655 nm. The results are expressed as % reduction in parasitaemia compared to control wells. Compounds are treated at 5 concentrations (64-16-4-1 and 0.25 μM or μg/mL).

[1] = tested on: P. falciparum multidrug-resistant strain Dd2; assay: Dd2 growth inhibition, 3H-hypoxanthine assay; assay type: cell-based, Plasmodium falciparum; details: for IC50: Plasmodium falciparum, DD2, 48 h exposure then 24 h hypoxanthine, read-out: IC50 against Dd2
Protocol: The IC50 was tested by standard in vitro antiproliferation assays (Desjardins et al, 1979 Antimicrob. Agents Chemother 1979, 16, 710-718). Infected erythrocytes in ring stage (0.5% parasitemia, 2.5% hematocrit) in 96-well plates were exposed to the compounds for 48 h and then to radioactive hypoxanthine for 24 h. The amount of radioactivity in precipitable material served as an index of cell proliferation.

P. berghei ANKA = assay: In vivo 4-day suppressive test in P. berghei-infected mice; design: species or system Plasmodium berghei; details: intraperitoneal
Protocol: The in vivo tests in the mouse model were done according to a standard protocol (Peters et al Handbook of Animal Models of Infection; Academic Press, London, 1999; pp. 756-771). […] […] For administration, compounds were freshly prepared in 10% DMSO in sterile phosphate-buffered saline the day of use. Two hours post-infection mice received the first treatment by the intraperitoneal route. Mice were further treated on days +1-3. Blood films from tail blood were prepared on day +4, and parasitaemia was determined by microscopic examination of Giemsa-stained blood films. […] […] Mice were treated and levels of parasitemia determined as described.

Row | melting point | Structure (SMILES) | also measured
1 | – | C[C@H]1[C@H](OC(=O)CCC(=O)O)O[C@@H]2O[C@@]3(C)CC[C@H]4[C@H](C)CC[C@@H]1[C@@]24OO3 [Artesunate, reference compound] | IC50 (Pf-GHA; 72 h): 5 nM
2 | 74 °C | O=C1C=C(C(F)F)C(=O)c2ccccc21 [HB49, 2-Difluoromethyl-1,4-naphthoquinone] | –
3 | 67 to 68 °C | COc1c(C)c(C(O)c2ccc(Br)cc2)c(OC)c2ccccc12 (stereo not shown) [P_TM7, (4-Bromo-phenyl)-(1,4-dimethoxy-3-methyl-naphthalen-2-yl)-methanol] | –
4 | 201 °C (dec.) | CC1=C(C(=O)c2ccc(C(=O)O)cc2)C(=O)C2C=CC=CC2C1=O (stereo not shown) [P_TM22, 4-(3-Methyl-1,4-dioxo-1,4,4a,8a-tetrahydro-naphthalene-2-carbonyl)-benzoic acid] | –
5 | 118 to 119 °C | CC1=C(Cc2ccc(F)cc2)C(=O)C2C=CC=CC2C1=O (stereo not shown) [P_TM26, 2-Methyl-3-(4-fluoro-benzyl)-4a,8a-dihydro-[1,4]naphthoquinone] | –
6 | 162 °C | COC(=O)c1ccc(C(=O)C2=C(C)C(=O)c3ccccc3C2=O)cc1 [P_TM28, 4-(3-Methyl-1,4-dioxo-1,4-dihydro-naphthalene-2-carbonyl)-benzoic acid methyl ester] | –
7 | 134 to 135 °C | CC1=C(Cc2ccc(Cl)cc2)C(=O)C2C=CC=CC2C1=O (stereo not shown) [P_TM30, 2-Methyl-3-(4-chloro-benzyl)-4a,8a-dihydro-[1,4]naphthoquinone] | IC50 [1]: < 100 nM; IC50 (Pf-GHA; 72 h incubation): < 5000 nM
8 | 112 to 113 °C | COc1ccc(CC2=C(C)C(=O)C3C=CC=CC3C2=O)cc1 (stereo not shown) [P_TM31, 2-Methyl-3-(4-methoxy-benzyl)-4a,8a-dihydro-[1,4]naphthoquinone] | IC50 [1]: < 100 nM
9 | 117 to 118 °C | COc1ccccc1CC1=C(C)C(=O)C2C=CC=CC2C1=O (stereo not shown) [P_TM32, 2-Methyl-3-(2-methoxy-benzyl)-4a,8a-dihydro-[1,4]naphthoquinone] | IC50 [1]: < 100 nM
10 | 146 to 147 °C | COc1ccccc1C(=O)C1=C(C)C(=O)C2C=CC=CC2C1=O (stereo not shown) [P_TM35, 2-Methyl-3-(2-methoxy-benzoyl)-4a,8a-dihydro-[1,4]naphthoquinone] | –
11 | 156 to 157 °C | CC1=C(Cc2ccc([N+](=O)[O-])cc2)C(=O)C2C=CC=CC2C1=O (stereo not shown) [P_TM37, 2-Methyl-3-(4-nitro-benzyl)-4a,8a-dihydro-[1,4]naphthoquinone] | reduction in parasitaemia (P. berghei ANKA; daily dose of 30 mg/kg, 4-day test, mice): 42.4%; activity on 4-day treatment (P. berghei ANKA; P. berghei-infected mice): significant activity
12 | – | CC1=C(C(=O)c2ccc(Cl)cc2)C(=O)C2C=CC=CC2C1=O (stereo not shown) [P_TM38, 2-Methyl-3-(4-chloro-benzoyl)-4a,8a-dihydro-[1,4]naphthoquinone] | IC50 (Pf-GHA; 72 h incubation): < 5000 nM
13 | 159 to 160 °C | CC1=C(Cc2ccc(C#N)cc2)C(=O)C2C=CC=CC2C1=O (stereo not shown) [P_TM41, 2-Methyl-3-(4-cyano-benzyl)-4a,8a-dihydro-[1,4]naphthoquinone] | IC50 [1]: < 100 nM; IC50 (Pf-GHA; 72 h incubation): < 5000 nM
14 | 163 to 164 °C | CC1=C(Cc2ccc(Br)cc2)C(=O)C2C(O)=CC=CC2C1=O (stereo not shown) [P_TM42, 3-(4-Bromo-benzyl)-5-hydroxy-2-methyl-4a,8a-dihydro-[1,4]naphthoquinone] | IC50 (Pf-GHA; 72 h incubation): < 5000 nM
15 | 148 to 149 °C | CC1=C(Cc2ccc(NC(=O)OC(C)(C)C)cc2)C(=O)C2C=CC=CC2C1=O (stereo not shown) [P_TM45, [4-(3-Methyl-1,4-dioxo-1,4,4a,8a-tetrahydro-naphthalen-2-ylmethyl)-phenyl]-carbamic acid tert-butyl ester] | –
16 | 185 to 186 °C | CC1=C(C(=O)c2ccc(C#N)cc2)C(=O)C2C=CC=CC2C1=O (stereo not shown) [P_TM46, 2-Methyl-3-(4-cyano-benzoyl)-4a,8a-dihydro-[1,4]naphthoquinone] | IC50 (Pf-GHA; 72 h incubation): < 5000 nM
17 | 64 to 65 °C | CC1=C(C(=O)c2ccc(C(C)(C)C)cc2)C(=O)C2C=CC=CC2C1=O (stereo not shown) [P_TM48, 2-Methyl-3-(4-tertbutyl-benzoyl)-4a,8a-dihydro-[1,4]naphthoquinone] | –
18 | 206 to 208 °C | CC1=C(Cc2ccc(C(=O)O)cc2)C(=O)C2C=CC=CC2C1=O (stereo not shown) [P_TM50, 4-(3-Methyl-1,4-dioxo-1,4,4a,8a-tetrahydro-naphthalen-2-ylmethyl)-benzoic acid] | –

Row | melting point | Structure (SMILES) | also measured
19 | 131 to 132 °C | CC1=C(Cc2ccc(C(=O)NCCC#N)cc2)C(=O)C2C=CC=CC2C1=O (stereo not shown) [P_TM53, N-(2-Cyano-ethyl)-4-(3-methyl-1,4-dioxo-1,4,4a,8a-tetrahydronaphthalen-2-ylmethyl)-benzamide] | –
20 | 102 to 103 °C | COc1ccc(CC2=C(C)C(=O)C3C=CC=CC3C2=O)cc1OC (stereo not shown) [P_TM54, 2-(3,4-Dimethoxy-benzyl)-3-methyl-4a,8a-dihydro-[1,4]naphthoquinone] | –
21 | 103 to 105 °C | COc1ccc(CC2=C(C)C(=O)C3C=CC=CC3C2=O)c(OC)c1 (stereo not shown) [P_TM56, 2-(2,4-Dimethoxy-benzyl)-3-methyl-4a,8a-dihydro-[1,4]naphthoquinone] | –
22 | 127 to 128 °C | COc1cc(CC2=C(C)C(=O)C3C=CC=CC3C2=O)cc(OC)c1 (stereo not shown) [P_TM58, 2-(3,5-Dimethoxy-benzyl)-3-methyl-4a,8a-dihydro-[1,4]naphthoquinone] | IC50 [1]: < 100 nM; IC50 (Pf-GHA; 72 h incubation): < 5000 nM
23 | 140 to 142 °C | COc1ccc(OC)c(CC2=C(C)C(=O)C3C=CC=CC3C2=O)c1 (stereo not shown) [P_TM60, 2-(2,5-Dimethoxy-benzyl)-3-methyl-4a,8a-dihydro-[1,4]naphthoquinone] | IC50 [1]: < 100 nM
24 | 103 to 104 °C | CC1=C(Cc2ccccc2)C(=O)C2C=CC=CC2C1=O (stereo not shown) [P_TM62, 2-Methyl-3-benzyl-4a,8a-dihydro-[1,4]naphthoquinone] | antimalarial activity against Dd2 ([1]; compared with substituted benzyl derivatives): less active
25 | 112 to 114 °C | CC1=C(Cc2ccc(-c3ccc(C(C)(C)C)cc3)cc2)C(=O)c2ccccc2C1=O [P_TM66, 2-(4′-tert-Butyl-biphenyl-4-ylmethyl)-3-methyl-[1,4]naphthoquinone] | IC50 (Pf-GHA; 72 h incubation): < 5000 nM
26 | – | CCCCC(C1=C(C)C(=O)c2ccccc2C1=O)c1ccc(-c2ccc([N+](=O)[O-])cc2)cc1 (stereo not shown) [P_TM67, 2-(4′-nitro-Butyl-biphenyl-4-ylmethyl)-3-methyl-[1,4]naphthoquinone] | IC50 (Pf-GHA; 72 h incubation): < 5000 nM
27 | 101 to 102 °C | COc1c(C)c(Cc2ccc(Cl)cc2)c(OC)c2ccccc12 [P_TM75, 2-(4-Chloro-benzyl)-1,4-dimethoxy-3-methyl-naphthalene] | –
28 | 63 to 65 °C | COc1c(C)c(Cc2ccc(N3CCN(Cc4ccc(C(C)(C)C)cc4)CC3)cc2)c(OC)c2ccccc12 [P_TM78, 1-(4-tert-Butyl-benzyl)-4-[4-(1,4-dimethoxy-3-methyl-naphthalen-2-ylmethyl)-phenyl]piperazine] | –
29 | 112 to 113 °C | CC1=C(Cc2ccc(C(C)(C)C)cc2)C(=O)c2c(O)cccc2C1=O [P_TM81, 3-(4-tert-Butyl-benzyl)-5-hydroxy-2-methyl-[1,4]naphthoquinone] | IC50 (Pf-GHA; 72 h incubation): < 5000 nM
30 | 87 to 88 °C | COc1cccc(CC2=C(C)C(=O)c3ccccc3C2=O)c1 [P_TM96, 2-(3-Methoxy-benzyl)-3-methyl-[1,4]naphthoquinone] | –
31 | 108 to 109 °C | CC1=C(Cc2cccc(Br)c2)C(=O)C2C=CC=CC2C1=O (stereo not shown) [P_TM99, 2-Methyl-3-(3-bromo-benzyl)-4a,8a-dihydro-[1,4]naphthoquinone] | –
32 | 64 to 65 °C | CC1=C(Cc2ccc(C(C)C)cc2)C(=O)C2C=CC=CC2C1=O (stereo not shown) [P_TM100, 2-Methyl-3-(4-isopropyl-benzyl)-4a,8a-dihydro-[1,4]naphthoquinone] | –
33 | 103 to 104 °C | O=C1C(Cc2ccc(Br)cc2)=C(C(F)F)C(=O)c2ccccc21 [P_TM101, 2-(4-Bromo-benzyl)-3-difluoromethyl-[1,4]naphthoquinone] | –
34 | 152 to 153 °C | CC1=C(Cc2ccc(N)cc2)C(=O)C2C=CC=CC2C1=O (stereo not shown) [P_TM103, 2-Methyl-3-(4-amino-benzyl)-4a,8a-dihydro-[1,4]naphthoquinone] | –
35 | – | O=C1C(O)=C([C@H]2CC[C@H](c3ccc(Cl)cc3)CC2)C(=O)c2ccccc21 [atovaquone, reference compound] | IC50 [1]: < 0.1 nM; IC50 (Pf-GHA; 72 h incubation): 310 nM
